Values quoted from earlier work in US12527811B2, “Defibrotide for the prevention and treatment of cytokine release syndrome and neurotoxicity associated with immunodepletion” (priority 2018, dated 2026).
Where two headings read alike, the source gives them in different places.

Key:
[1] = ZUMA-1, one hundred and one adult patients with refractory aggressive B-cell NHL; cited from earlier work
IL-6R = biological target: T1, IL-6R (Homo sapiens, UniProt P08887); conditions: read-out: affinity (Kd) for IL-6R; cited from earlier work
T1 sequence (P08887 20-468): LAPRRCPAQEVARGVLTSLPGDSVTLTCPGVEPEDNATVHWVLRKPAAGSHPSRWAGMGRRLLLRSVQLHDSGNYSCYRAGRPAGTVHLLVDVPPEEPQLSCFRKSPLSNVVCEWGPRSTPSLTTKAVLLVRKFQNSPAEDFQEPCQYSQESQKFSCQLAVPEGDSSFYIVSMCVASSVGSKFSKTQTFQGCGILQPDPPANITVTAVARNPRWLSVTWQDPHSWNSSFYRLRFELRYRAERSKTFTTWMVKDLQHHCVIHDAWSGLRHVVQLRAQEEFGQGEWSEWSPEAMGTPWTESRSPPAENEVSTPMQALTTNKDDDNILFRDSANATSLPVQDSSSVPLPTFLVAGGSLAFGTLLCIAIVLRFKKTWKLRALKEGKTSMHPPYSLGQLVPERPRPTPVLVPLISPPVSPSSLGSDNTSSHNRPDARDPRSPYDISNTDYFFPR

IL-6 = IL-6 (Homo sapiens, UniProt P05231); conditions: cited from earlier work
IL-6, sequence (P05231 30-212): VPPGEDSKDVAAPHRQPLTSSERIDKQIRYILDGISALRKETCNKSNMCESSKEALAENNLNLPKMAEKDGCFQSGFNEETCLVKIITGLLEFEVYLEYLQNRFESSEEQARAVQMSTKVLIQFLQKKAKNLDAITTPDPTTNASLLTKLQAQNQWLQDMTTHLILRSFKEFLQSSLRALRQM

[2] = in vivo; cited from earlier work
[3] = JULIET, ninety-three adult patients with relapsed or refractory DLBLC; cited from earlier work

## Axicabtagene ciloleucel [Axi-cel]
[1]
  rate of grade>3 CRES: 28%
  rate of grade>3 CRS: 13%

## IL-6: cytokine that binds IL-6R
IL-6R
  Kd: ~1 nM

## siltuximab
IL-6
  Kd: ~0.001 nM
[2]
  effect on CRS symptoms: rapid reversal of CRS symptoms in most patients

## tisagenlecleucel
[3]
  rate of grade>3 CRES: 12%
  rate of grade>3 CRS: 22%

## tocilizumab [reference compound]
IL-6R
  Kd: 2.54 nM
